According to US20250296937A1, “CYCLIC BISBENZYL TETRAHYDROISOQUINOLINE COMPOUND, AND PREPARATION METHOD THEREFOR AND USE THEREOF” (Shanghai Institute of Materia Medica, Chinesse Academy of …, priority 2021, published 2025):
Entries after “also recorded” stand apart in the source; their conditions may differ. Like-named read-outs stand apart in the source and are kept apart here.

How the values were obtained:
[1] = system: Th1/Th17 differentiation of CD4+T cells; assay: CD4+T cell in vitro differentiation assay (Th1 IFN-γ / Th17 IL-17A, flow cytometry); settings: 10 μM, 72 h, IFN-γ/IL-17A by flow cytometry
Experimental: CD4^+T cell isolation: CD4^+T cells were isolated from the spleens of 7-8 week old C57BL/6 mice using the Mouse CD4^+T Cell Sorting Kit (Dynabeads® Untouched™ Mouse CD4 Cells Isolation Kit, Invitrogen, Catalog nos: 11415D).
In vitro differentiation of CD4^+T cells: the isolated CD4^+T cells were inoculated into 96-well plates while different concentrations of compounds were added, and then corresponding cytokines and antibodies were added: anti-CD28 (2 μg/ml), anti-CD3 (2 μg/ml), Anti-IL-4 (10 μg/ml), IL-12 (10 ng/ml), Anti-IFN-γ (10 μg/ml), anti-IL-4 (10 μg/ml), IL-6 (30 ng/ml), TGF-β1 (3 ng/ml), IL-10 (10 ng/ml), IL-23 (10 ng/ml), and TNF-α (10 ng/ml). Cells were cultured in 5% CO2 at 37° C. in a cell culture chamber for 72 h. Cells were collected, stained intracellularly, analyzed by flow cytometry, and tested for IFN-γ/IL-17A content to assess the effect of compounds on CD4^+T differentiation into Th1/Th17 in vitro.

hERG potassium channel = target: T1, hERG potassium channel (Homo sapiens, UniProt Q12809); assay: hERG potassium channel whole-cell membrane clamp in CHO cells; format: cell-based; settings: CHO cells stably expressing hERG, whole-cell membrane clamp
T1 construct: expressed in transfected cells
Experimental: Compounds were given for at least 1 min for each tested concentration, and at least 2 cells (n≥2) were tested per concentration.

ALM12 hepatocytes = assay: Anti H2O2-induced necrotic injury assay in ALM12 hepatocytes (microscopy, CCK-8); format: cell-based; settings: 2 mM H2O2, 1 μM compound, 3 hours, microscope and CCK-8
Experimental: In this example, the effect of the compounds of the present invention on the level of necrotic injury induced by H2O2 in ALM12 hepatocytes was analyzed by microscopic morphological observations, cell viability in combination with cell death-associated molecules. Cell viability was analyzed by CCK-8 assay. ALM12 cells were cultured in 1640 medium (gibco, c11995500BT)+10% FBS (gibco, 10099141C) in a constant temperature incubator at 37° C., 5% CO2; the CCK-8 kit was purchased from Meilunbio, item no. MA0218-3; H2O2 was purchased from Sinopharm Chemical Reagent Co. item no. 10011208.
(§1) Experimental methods: first, 8000 cells/well ALM12 cells were placed in 96-well plates and incubated overnight. On the second day, 0.1% DMSO was added to the control cells, 2 mM H2O2 as well as 0.1% DMSO was added to the model group, 2 mM H2O2 as well as 1 μM of the compounds (oxy, 1, 2, tet, 3, 4, 6, 58) was added to the treatment group, and the 96-well plates were sterilized and incubated in a constant temperature incubator for 3 hours. Finally, cell injury and growth were observed using a microscope; the viability of the cells was detected by CCK-8 kit.

Raw 264.7 cells [2] = assay: Cell viability in LPS-induced inflammation model of Raw 264.7 cells (CCK-8); format: cell-based; settings: 1 μg/ml LPS, 1 μM compound, 16 hours
Experimental: (§2) In this example, the effect of the compounds of the present invention on the inflammation level of the LPS-induced inflammation model of Raw 264.7 cells was analyzed by cell viability in combination with inflammatory factors; cell viability was analyzed by CCK-8 assay; and mRNA expression levels of inflammation-related indicators were detected by a real-time quantitative PCR (Q-PCR) method. Raw 264.7 cells were purchased from ATCC; CCK-8 kit was purchased from Meilunbio, item no. MA0218-3; LPS was purchased from Sigma, item no. L2630.
(§3) Experimental methods: first, 8000 cells/well Raw 264.7 cells were placed in 96-well plates and incubated overnight. On the second day, 0.1% DMSO was added to the control cells, 1 μg/ml LPS as well as 0.1% DMSO was added to the model group, 1 μg/ml LPS as well as 1 μM of the compounds (oxyacanthine hydrochloride (oxy), 1, 2, tetrandrine (tet), 3, 4, 6, 58) was added to the treatment group, and the 96-well plates were sterilized and incubated in a constant temperature incubator for 16 hours. Finally, the viability of the cells was detected using the CCK-8 kit.

Vero E6 cells = assay: Cytotoxicity test on Vero E6 cells (CCK8); format: cell-based; settings: Vero E6 cells
Experimental: (§4) In this embodiment, the half toxicity concentration of each embodiment on Vero E6 cells was determined by CCK8 kit analysis (CC50).

[3] = Cytotoxicity test on Vero E6 cells (CCK8); format: cell-based; settings: African green monkey; Vero E6 cells, CCK8 kit
Experimental: as §4

Raw 264.7 cells [4] = assay: Cell viability in TNF-α induced inflammation model of Raw 264.7 cells (CCK-8); format: cell-based; settings: 10 ng/ml TNF-α, 1 μM compound, 16 hours
Experimental: (§5) In this embodiment, the effect of compounds on TNF-α-induced inflammation levels in Raw 264.7 cells was analyzed by cell viability combined with inflammatory factor expression levels; cell viability was analyzed by CCK-8 assay; and mRNA expression levels of inflammation-associated indicators were detected by real-time quantitative PCR (Q-PCR) method. Raw 264.7 cells were purchased from ATCC, CCK-8 kit was purchased from Meilunbio, item number MA0218-3, TNF-α was purchased from Merck, item no. GF314.
as §3, with “10 ng/ml TNF-α” for “1 μg/ml LPS”

[5] = system: inflammatory factor mRNA in Raw 264.7 cells; assay: mRNA levels of inflammatory indicators in TNF-α-induced inflammation model of Raw264.7 cells (Q-PCR); format: cell-based; settings: 10 ng/ml TNF-α, 1 μM compound, 16 hours
Experimental: as §5
as §3, with “5*10^4” for “8000”, “12-well” for “96-well”, “10 ng/ml TNF-α” for “1 μg/ml LPS”, “Cellular mRNA was extracted by lysis using Trizol (Yisheng, 10606ES60) and detected by real-time quantitative PCR after reverse transcription,” for “Finally,”, “primers are” for “viability of”, “same as in Table 2.” for “cells was detected using the CCK-8 kit.”

[6] = system: 2019 novel coronavirus (SARS-CoV-2) original strain; assay: Replication inhibitory activity against SARS-CoV-2 original strain in Vero E6 cells (qRT-PCR); format: cell-based; settings: read-out: Inhibition against viral replication of the original strain EC50
[7] = system: A549 lung epithelial cells; assay: Anti TGF-β1-induced fibrosis assay in A549 lung epithelial cells (microscopy, Western Blot); format: cell-based; settings: 10 ng/ml TGF-β1, 1 μM compound
Experimental: Cell injury was observed by microscopic observation; cell viability was analyzed by CCK-8 assay; and protein expression levels of fibrosis-related indicators were detected by Western Blot method. A549 cells were purchased from ATCC; CCK-8 kit was purchased from Meilunbio, item number MA0218-3; TGF-β1 was purchased from MCE, item number HY-P70543; primary antibodies: Collagen was purchased from ARG21965, item no. arigobio; α-smooth muscle actin was purchased from CST, item no. mAb #19245; VIMENTN was purchased from CST, item no. mAb #5741; GAPDH was purchased from Yeasen, item no. 30201ES20.
as §1, with “cells/well A549” for “cells/well ALM12”, “cells, 10 ng/ml TGF-β1” for “cells, 2 mM H2O2”, “group, 10 ng/ml TGF-β1” for “group, 2 mM H2O2”, “for 72” for “for 3”

[8] = system: TNF-α and IL1β mRNA in A549 cells; assay: mRNA levels of injury indicators in TNF-α-induced A549 cell injury (Q-PCR); format: cell-based; settings: 10 ng/ml TNF-α, 1 μM compound, 24 hours
Experimental: In this example, cell viability combined with cell death-associated molecules were used to analyze the effect of compounds on the level of TNF-α-induced injury in A549 lung epithelial cells. Cell injury was observed by microscopy; cell viability was analyzed by CCK-8 assay; and mRNA expression levels of injury-related indicators were detected by real-time quantitative PCR (Q-PCR) method. A549 cells were purchased from ATCC, CCK-8 kit was purchased from Meilunbio, item no. MA0218-3, and LPS was purchased from Sigma, item no. L2630.
(§6) Experimental methods: first, 5*10^4 cells/well A549 cells were placed in 12-well plates and incubated overnight. On the second day, 0.1% DMSO was added to the control cells, 10 ng/ml TNF-α as well as 0.1% DMSO was added to the model group, 10 ng/ml TNF-α as well as 1 μM of the compounds (oxy, 1, 2, tet, 3, 4, 6, 58) was added to the treatment group, and the 12-well plates were sterilized and incubated in a constant temperature incubator for 24 hours. Cellular mRNA was extracted by lysis using Trizol (Yisheng, 10606ES60) and detected by real-time quantitative PCR after reverse transcription.

[9] = system: IL-6, IL-1β, CXCL9 mRNA in Raw 264.7 cells; assay: mRNA levels of inflammatory indicators in LPS-induced inflammation model of Raw264.7 cells (Q-PCR); format: cell-based; settings: 1 μg/ml LPS, 1 μM compound, 16 hours
Experimental: as §2
as §6, with “Raw 264.7” for “A549”, “1 μg/ml LPS” for “10 ng/ml TNF-α”, “(oxyacanthine hydrochloride (oxy),” for “(oxy,”, “tetrandrine (tet),” for “tet,”, “16” for “24”

[10] = target: novel coronavirus envelope protein (2-E) ion channel (Severe acute respiratory syndrome coronavirus 2, UniProt P0DTC4); assay: Novel coronavirus envelope protein (2-E) ion channel activity test, planar lipid bilayer (BLM); format: biochemical, SARS-CoV-2; settings: room temperature, 1, 10, 50, 100 μM, read-out: Inhibition against 2-E ion channels IC50
HCoV OC43 virus = assay: Inhibition against HCoV OC43 virus replication; format: cell-based, human coronavirus HCoV OC43
[11] = Severe acute respiratory syndrome coronavirus 2, Vero C1008, Vero E6 cells, MOI 0.01, 24 h p.i., viral copy number by qRT-PCR

T1 sequence (Q12809 whole entry): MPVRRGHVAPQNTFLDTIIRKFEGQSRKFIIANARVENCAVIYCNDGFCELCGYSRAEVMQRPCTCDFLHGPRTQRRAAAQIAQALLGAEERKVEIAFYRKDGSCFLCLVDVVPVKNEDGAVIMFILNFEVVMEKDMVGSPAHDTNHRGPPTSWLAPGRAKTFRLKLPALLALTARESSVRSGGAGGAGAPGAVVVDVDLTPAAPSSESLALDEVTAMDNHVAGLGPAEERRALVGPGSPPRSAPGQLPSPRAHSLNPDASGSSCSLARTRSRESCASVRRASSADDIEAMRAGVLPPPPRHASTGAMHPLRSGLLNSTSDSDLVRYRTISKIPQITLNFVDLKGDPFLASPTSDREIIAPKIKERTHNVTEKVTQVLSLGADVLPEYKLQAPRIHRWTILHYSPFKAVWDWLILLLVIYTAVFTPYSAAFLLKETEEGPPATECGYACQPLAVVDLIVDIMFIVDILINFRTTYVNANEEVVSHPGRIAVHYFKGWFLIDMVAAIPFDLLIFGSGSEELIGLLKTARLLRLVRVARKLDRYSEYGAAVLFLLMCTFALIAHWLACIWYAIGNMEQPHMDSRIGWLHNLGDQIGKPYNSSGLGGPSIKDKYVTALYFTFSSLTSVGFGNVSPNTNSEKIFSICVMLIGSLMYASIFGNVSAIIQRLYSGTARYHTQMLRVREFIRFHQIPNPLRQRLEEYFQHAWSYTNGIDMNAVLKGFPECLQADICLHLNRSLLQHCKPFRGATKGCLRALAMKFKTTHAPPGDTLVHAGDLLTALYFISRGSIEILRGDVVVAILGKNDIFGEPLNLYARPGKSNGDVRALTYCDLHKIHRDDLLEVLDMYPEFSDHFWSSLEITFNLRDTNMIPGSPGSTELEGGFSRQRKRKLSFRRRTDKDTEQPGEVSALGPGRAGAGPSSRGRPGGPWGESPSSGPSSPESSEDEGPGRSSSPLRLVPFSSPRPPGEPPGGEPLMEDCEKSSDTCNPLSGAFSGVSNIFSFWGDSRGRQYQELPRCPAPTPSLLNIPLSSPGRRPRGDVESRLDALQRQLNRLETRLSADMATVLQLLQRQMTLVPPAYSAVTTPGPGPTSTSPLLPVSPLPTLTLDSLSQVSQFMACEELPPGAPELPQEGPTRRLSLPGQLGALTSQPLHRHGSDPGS
Chain of novel coronavirus envelope protein (2-E) ion channel (P0DTC4 whole entry, looked up): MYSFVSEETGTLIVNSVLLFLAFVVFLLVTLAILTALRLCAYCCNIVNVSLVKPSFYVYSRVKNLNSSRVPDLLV

Compound	inhibitory effect on Th1/Th17 differentiation [1]	IC50 (hERG potassium channel)	alleviation of H2O2-induced ALM12 hepatocyte injury (ALM12 hepatocytes)	cell viability in LPS-induced inflammation model (Raw 264.7 cells [2])	cytotoxicity on Vero E6 cells compared with oxyacanthine hydrochloride (Vero E6 cells)	IC50 [3]	cell viability in TNF-α-induced inflammation model (Raw 264.7 cells [4])	inhibition of inflammatory factors (mRNA) in TNF-α-induced inflammation model [5]	EC50 [6, 11]	alleviation of TGF-β1-induced fibrosis in A549 lung epithelial cells (Collagen1, α-SMA by WB) [7]	IC50 (Vero E6 cells; CCK8 kit)	inhibition of injury (damage) factors mRNA in TNF-α-induced A549 lung cell injury model [8]	inhibition of inflammatory factors (IL-6, IL-1β, CXCL9 mRNA) in LPS-induced inflammation model [9]	IC50 [10]	EC50 [6]	inhibition against human coronavirus HCoV OC43 (HCoV OC43 virus)	EC50 (HCoV OC43 virus; Betacoronavirus 1, OC43)
COc1cc2c3cc1Oc1c(OC)c(OC)cc4c1[C@H](Cc1ccc(cc1)Oc1cc(ccc1C(=O)NC1CC1)C[C@H]3N(C)CC2)N(C)CC4 [Compound 6]	strong inhibitory effect	8.9 µM	significantly alleviated	did not affect cell viability	weaker cytotoxicity than oxyacanthine hydrochloride	> 50 µM	did not affect cell viability	significantly inhibited inflammatory factors; also recorded: significant inhibition	0.1 to 1 µM								
oxyacanthine hydrochloride [reference compound]								significant inhibition		partially alleviate fibrosis	< 30 µM	significantly inhibited	significant inhibition	> 100 µM	> 10 µM		
COc1cc2c3cc1Oc1c(OC)c(OC)cc4c1[C@H](Cc1ccc(cc1)Oc1cc(ccc1C(=O)OCCOCCO)C[C@H]3N(C)CC2)N(C)CC4 [Compound 58]	strong inhibitory effect	16.5 µM	significantly alleviated	did not affect cell viability	weaker cytotoxicity than oxyacanthine hydrochloride	> 50 µM	did not affect cell viability	significantly inhibited inflammatory factors; also recorded: significant inhibition	0.1 to 1 µM			significantly inhibited the damage factors	significantly inhibited inflammatory factors; also recorded: significant inhibition				
COC(=O)c1ccc2cc1Oc1ccc(cc1)C[C@H]1c3c(cc(OC)c(OC)c3Oc3cc4c(cc3OC)CCN(C)[C@@H]4C2)CCN1C [Compound 3]	strong inhibitory effect	7 µM	significantly alleviated	did not affect cell viability	weaker cytotoxicity than oxyacanthine hydrochloride	30 to 50 µM	did not affect cell viability	significantly inhibited inflammatory factors; also recorded: significant inhibition	0.1 to 1 µM			significantly inhibited the damage factors		< 10 µM		strong inhibition	2.3 µM
